Among the data in patent US9579385B2, “Ophthalmic compositions comprising polyvinyl caprolactam-polyvinyl acetate-polyethylene glycol graft copolymers” (Allergan, Inc., priority 2011, dated 2017) are solubility values, retold here.

What is called solubility is how much of the substance goes into solution per volume. Read a high solubility as a readily soluble substance.

The structures appear in SMILES notation. Converted amounts (≈) assume the structure as drawn.

The data set is described as follows: Bimatoprost solubility in formulation vehicles with different solubilizers. In kind it is physicochemical. Conditions: for solubility at 8 weeks: measured at 8 weeks; for solubility at 1 week: formulation vehicle with 1% SOLUPLUS (PCA-PVA-PEG), vehicle with 1% SOLUPLUS (PCA-PVA-PEG), measured at 1 week only. The text has this:
Table 1 summarizes solubility of bimatoprost in vehicles with 5 different solubilizers over a range of temperatures.

With `CCNC(=O)CCC/C=C\C[C@@H]1[C@@H](/C=C/[C@@H](O)CCc2ccccc2)[C@H](O)C[C@@H]1O` [Bimatoprost], the solubility at 8 weeks by setting is: (formulation vehicle with 1% POE 40 Stearate, aqueous with cosolvent or surfactant or cyclodextrin, vehicle with 1% POE 40 Stearate, 5 °C) 1270 µg/mL (≈ 3.05 mM); (formulation vehicle with 1% POE 40 Stearate, aqueous with cosolvent or surfactant or cyclodextrin, vehicle with 1% POE 40 Stearate, 25 °C) 1210 µg/mL (≈ 2.92 mM); (formulation vehicle with 1% POE 40 Stearate, aqueous with cosolvent or surfactant or cyclodextrin, vehicle with 1% POE 40 Stearate, 40 °C) 1150 µg/mL (≈ 2.76 mM); (formulation vehicle with 1% Polysorbate 20, aqueous with cosolvent or surfactant or cyclodextrin, vehicle with 1% Polysorbate 20, 5 °C) 1240 µg/mL (≈ 2.99 mM); (formulation vehicle with 1% Polysorbate 20, aqueous with cosolvent or surfactant or cyclodextrin, vehicle with 1% Polysorbate 20, 25 °C) 1180 µg/mL (≈ 2.83 mM); (formulation vehicle with 1% Polysorbate 20, aqueous with cosolvent or surfactant or cyclodextrin, vehicle with 1% Polysorbate 20, 40 °C) 1050 µg/mL (≈ 2.53 mM). Also, the solubility at 8 weeks runs as follows: (formulation vehicle with 1% Polysorbate 80, aqueous with cosolvent or surfactant or cyclodextrin, vehicle with 1% Polysorbate 80, 5 °C) 1680 µg/mL (≈ 4.04 mM); (formulation vehicle with 1% Polysorbate 80, aqueous with cosolvent or surfactant or cyclodextrin, vehicle with 1% Polysorbate 80, 25 °C) 1520 µg/mL (≈ 3.67 mM); (formulation vehicle with 1% Polysorbate 80, aqueous with cosolvent or surfactant or cyclodextrin, vehicle with 1% Polysorbate 80, 40 °C) 1460 µg/mL (≈ 3.51 mM); (formulation vehicle with 1% SOLUTOL HS 15, aqueous with cosolvent or surfactant or cyclodextrin, vehicle with 1% SOLUTOL HS 15, 5 °C) 1500 µg/mL (≈ 3.61 mM); (formulation vehicle with 1% SOLUTOL HS 15, aqueous with cosolvent or surfactant or cyclodextrin, vehicle with 1% SOLUTOL HS 15, 25 °C) 1320 µg/mL (≈ 3.18 mM); (formulation vehicle with 1% SOLUTOL HS 15, aqueous with cosolvent or surfactant or cyclodextrin, vehicle with 1% SOLUTOL HS 15, 40 °C) 1240 µg/mL (≈ 2.98 mM). The solubility at 1 week (aqueous with cosolvent or surfactant or cyclodextrin, 5 °C) was found to be 427 µg/mL (≈ 1.03 mM); the solubility at 1 week (aqueous with cosolvent or surfactant or cyclodextrin, 25 °C) amounted to 3510 µg/mL (≈ 8.45 mM); the solubility at 1 week (aqueous with cosolvent or surfactant or cyclodextrin, 40 °C) is 4750 µg/mL (≈ 11.4 mM).
